Patent publication US10077241B2 (Janssen Pharmaceutica NV, priority 2014, dated 2018)
pEC50: −log10 of the molar value. Where a name gives a salt, the structure may show the parent alone.

Legend:
[1] = biological target: T1, TGR5 (STC1 cell line) (Mus musculus, UniProt Q80SS6); assay: STC1 cAMP Agonist EC50 Determination
T1 sequence (Q80SS6 1-329): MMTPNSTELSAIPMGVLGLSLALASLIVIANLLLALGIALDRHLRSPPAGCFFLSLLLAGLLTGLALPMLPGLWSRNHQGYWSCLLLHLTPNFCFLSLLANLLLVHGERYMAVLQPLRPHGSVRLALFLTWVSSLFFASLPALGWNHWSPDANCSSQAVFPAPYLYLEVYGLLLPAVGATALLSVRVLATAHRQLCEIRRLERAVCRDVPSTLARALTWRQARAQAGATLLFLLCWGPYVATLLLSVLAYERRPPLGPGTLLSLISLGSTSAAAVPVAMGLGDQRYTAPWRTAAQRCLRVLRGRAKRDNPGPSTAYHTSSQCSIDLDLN

[2] = biological target: T2, TGR5 (NCI-H716 cell line) (Homo sapiens, UniProt Q8TDU6); assay: NCI-H716 cAMP Agonist EC50 Determination
T2 sequence (Q8TDU6 1-330): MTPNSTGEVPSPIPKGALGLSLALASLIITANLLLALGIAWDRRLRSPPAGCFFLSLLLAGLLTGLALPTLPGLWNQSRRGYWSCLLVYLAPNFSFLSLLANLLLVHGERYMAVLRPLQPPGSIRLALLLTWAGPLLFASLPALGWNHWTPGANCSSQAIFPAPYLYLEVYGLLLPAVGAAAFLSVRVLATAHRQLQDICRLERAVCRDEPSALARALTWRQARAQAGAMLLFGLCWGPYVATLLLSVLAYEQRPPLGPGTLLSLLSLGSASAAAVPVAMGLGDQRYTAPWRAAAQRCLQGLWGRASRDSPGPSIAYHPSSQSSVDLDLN
Description: Cells were cultured in suspension using RPM containing: 10% HI FBS, and 1× Penn/Strep and were cryostored (1E7 cells/vial in 5% DMSO).
A Normalized signal (NS) is generated by the Envision for each well ((Read 1/Read 2)×10,000).
The data from the Envision were imported to an Excel worksheet. nM cAMP is calculated for each well from the cAMP standard curves located on each plate by first calculating the slope and deriving the intercept (b).
[formula] [formula] [formula] EC50 values were determined from a 4-point fit (Hill equation) of a single 11-point compound dosing.

SMILES | pEC50 [1] | pEC50 [2]
COc1cc(C2CCCc3nc(SCc4c(F)cc(CCC(=O)O)cc4F)n(-c4ccc(F)cc4)c32)ccc1Cl (stereo not drawn) [Example 44, 3-(4-((7-(4-chloro-3-methoxyphenyl)-1-(4-fluorophenyl)-4,5,6,7-tetrahydro-1H-benzo[d]imidazol-2-ylthio)methyl)-3,5-difluorophenyl)propanoic acid trifluoroacetic acid] | 5.86 | < 4.30
COc1ccc(C2(C)CCCc3nc(SCc4c(F)cc(Br)cc4F)n(-c4ccc(F)cc4)c32)cc1OC (stereo not drawn) [Example 109, 2-((4-bromo-2,6-difluorobenzyl)thio)-7-(3,4-dimethoxyphenyl)-1-(4-fluorophenyl)-7-methyl-4,5,6,7-tetrahydro-1H-benzo[d]imidazole] | 6.70 | 5.44
Cc1nc2ccc(C3OCCc4nc(SCc5c(F)cccc5Cl)n(-c5ccc(F)cc5)c43)cc2o1 (stereo not drawn) [Example 135, 2-((2-chloro-6-fluorobenzyl)thio)-3-(4-fluorophenyl)-4-(2-methylbenzo[d]oxazol-6-yl)-3,4,6,7-tetrahydropyrano[3,4-d]imidazole] | 5.42 | 4.96
COCCNC(=O)c1cc(F)c(CSc2nc3c(n2-c2ccc(F)cc2)C(C)(c2ccc(F)c(OC)c2)CCC3)c(F)c1 (stereo not drawn) [Example 124, 3,5-difluoro-4-(((7-(4-fluoro-3-methoxyphenyl)-1-(4-fluorophenyl)-7-methyl-4,5,6,7-tetrahydro-1H-benzo[d]imidazol-2-yl)thio)methyl)-N-(2-methoxyethyl)benzamide] | 6.10 | < 4.30
C=C1COC(c2ccc(OC)c(OC)c2)c2c1nc(SCc1c(F)cccc1Cl)n2-c1ccc(F)cc1 (stereo not drawn) [Example 136, 2-((2-chloro-6-fluorobenzyl)thio)-4-(3,4-dimethoxyphenyl)-3-(4-fluorophenyl)-7-methylene-3,4,6,7-tetrahydropyrano[3,4-d]imidazole] | 5.82 | < 4.30
COc1cc(C2CCCc3nc(SCc4c(Cl)cncc4Cl)n(-c4ccc(F)cc4)c32)ccc1Cl (stereo not drawn) [Example 54] | 5.36 | < 4.30
COc1cc(C2CCCc3nc(SCc4c(F)cccc4Cl)n(-c4cc(F)c(F)cc4F)c32)ccc1Cl (stereo not drawn) [Example 11, 7-(4-chloro-3-methoxyphenyl)-2-((2-chloro-6-fluorobenzyl)thio)-1-(2,4,5-trifluorophenyl)-4,5,6,7-tetrahydro-1H-benzo[d]imidazole] | 5.43 | < 4.30
COc1cc(C2CCCc3nc(SCc4sccc4Cl)n(-c4ccc(F)cc4)c32)ccc1Cl (stereo not drawn) [Example 58, 2-((3-chlorothiophen-2-yl)methylthio)-7-(4-chloro-3-methoxyphenyl)-1-(4-fluorophenyl)-4,5,6,7-tetrahydro-1H-benzo[d]imidazole trifluoroacetic acid] | 5.96 | < 4.30
COc1ccc(C2CCCc3nc(SCc4c(F)cc(OCCCl)cc4F)n(-c4ccc(F)cc4)c32)cc1OC (stereo not drawn) [Example 67, 2-((4-(2-chloroethoxy)-2,6-difluorobenzyl)thio)-7-(3,4-dimethoxyphenyl)-1-(4-fluorophenyl)-4,5,6,7-tetrahydro-1H-benzo[d]imidazole] | 6.30 | 5.08
COc1cc(C2(C)CCCc3nc(SCc4c(F)cc(C#N)cc4F)n(-c4ccc(F)cc4)c32)ccc1Cl (stereo not drawn) [Example 89, 4-((7-(4-chloro-3-methoxyphenyl)-1-(4-fluorophenyl)-7-methyl-4,5,6,7-tetrahydro-1H-benzo[d]imidazol-2-ylthio)methyl)-3,5-difluorobenzonitrile trifluoroacetic acid] | 5.68 | < 4.30
COc1cc(C2CCCc3nc(SCc4c(F)ccc(OCCOCCN(C)C)c4F)n(-c4ccc(F)cc4)c32)ccc1Cl (stereo not drawn) [Example 35, (2-[2-[3-([[7-(4-chloro-3-methoxyphenyl)-1-(4-fluorophenyl)-4,5,6,7-tetrahydro-1H-1,3-benzodiazol-2-yl]sulfanyl]methyl)-2,4-difluorophenoxy]ethoxy]ethyl)dimethylamine hydrochloride] | 5.50 | 5.03
COc1ccc(C2(C)CCCc3nc(SCc4c(F)cc(OCCN(C)C)cc4F)n(-c4ccc(F)cc4)c32)cc1OC (stereo not drawn) [Example 108, 2-(4-(((7-(3,4-dimethoxyphenyl)-1-(4-fluorophenyl)-7-methyl-4,5,6,7-tetrahydro-1H-benzo[d]imidazol-2-yl)thio)methyl)-3,5-difluorophenoxy)-N,N-dimethylethanamine] | 6.51 | 6.17
COc1cc(C2CCCc3nc(SCc4c(F)cc(OCCOCCOCCN(C)C)cc4F)n(-c4ccc(F)cc4)c32)ccc1Cl (stereo not drawn) [Example 33, 2-(2-(2-(4-((7-(4-chloro-3-methoxyphenyl)-1-(4-fluorophenyl)-4,5,6,7-tetrahydro-1H-benzo[d]imidazol-2-ylthio)methyl)-3,5-difluorophenoxy)ethoxy)ethoxy)-N,N-dimethylethanamine hydrochloride] | 5.31 | < 4.30
COc1cc(C2CCCc3nc(SCc4c(F)cc(CCCN/C(N)=N/C#N)cc4F)n(-c4ccc(F)cc4)c32)ccc1Cl (stereo not drawn) [Example 43, (E)-1-(3-(4-((7-(4-chloro-3-methoxyphenyl)-1-(4-fluorophenyl)-4,5,6,7-tetrahydro-1H-benzo[d]imidazol-2-ylthio)methyl)-3,5-difluorophenyl)propyl)-2-cyanoguanidine hydrochloride] | 6.17 | < 4.30
COc1cc(C2(C)CCCc3nc(SCc4c(F)cc(C(=O)N5CCOCC5)cc4F)n(-c4ccc(F)cc4)c32)ccc1F (stereo not drawn) [Example 122, (3,5-difluoro-4-(((7-(4-fluoro-3-methoxyphenyl)-1-(4-fluorophenyl)-7-methyl-4,5,6,7-tetrahydro-1H-benzo[d]imidazol-2-yl)thio)methyl)phenyl) (morpholino)methanone] | 7.05 | 4.73
COc1cc(C2(C)CCCc3nc(SCc4c(F)cc(OCCN(C)C)cc4F)n(-c4ccc(F)cc4)c32)ccc1Cl (stereo not drawn) [Example 80, 2-(4-((7-(4-chloro-3-methoxyphenyl)-1-(4-fluorophenyl)-4,5,6,7-tetrahydro-7-methyl-1H-benzo[d]imidazol-2-ylthio)methyl)-3,5-difluorophenoxy)-N,N-dimethylethanamine] | 5.53 | 4.72
COc1cc(C2CCCc3nc(SCc4c(F)cc(CC5SC(=O)NC5=O)cc4F)n(-c4ccc(F)cc4)c32)ccc1Cl (stereo not drawn) [Example 38, 5-(4-((7-(4-chloro-3-methoxyphenyl)-1-(4-fluorophenyl)-4,5,6,7-tetrahydro-1H-benzo[d]imidazol-2-ylthio)methyl)-3,5-difluorobenzyl)thiazolidine-2,4-dione trifluoroacetic acid] | 5.90 | < 4.30
COc1cc(C2(C)CCCc3nc(SCc4c(F)cc(C(=O)NCCO)cc4F)n(-c4ccc(F)cc4)c32)ccc1Cl (stereo not drawn) [Example 94, 4-((7-(4-chloro-3-methoxyphenyl)-1-(4-fluorophenyl)-7-methyl-4,5,6,7-tetrahydro-1H-benzo[d]imidazol-2-ylthio)methyl)-3,5-difluoro-N-(2-hydroxyethyl)benzamide trifluoroacetic acid] | 6.39 | < 4.30
